We go through 18 compounds from PubChem BioAssay (NCI).

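A five-concentration, 48-hour dose response in 96-well plates underlies each endpoint, interpolated linearly between surrounding concentrations. Definition used: TGI = concentration required for complete inhibition of growth.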 Bounds are passed on as bounds.

What all share (experiment): growth of human tumour cells (NCI), 48 h
Assay [1] concerns HCT-15 colon.
For assay [2], the system named is HL-60(TB) leukemia.
The test system of assay [3] is MCF7 breast.
The subject of assay [4] is MOLT-4 leukemia.
The test system of assay [5] is NCI/ADR-RES ovarian.
Assay [6] relates to UACC-62 melanoma.
The test system of assay [7] is UO-31 renal.
The subject of assay [8] is DMS 273 small cell lung.
Assay [9] deals with KM20L2 colon.
The test system of assay [10] is M19-MEL melanoma.
The subject of assay [11] is DLD-1 colon.

As to `COc1ccc(-c2csc3c2[N+]2(C)C=CC=C2C3N2CCCC2)cc1` (stereo unspecified), the TGI in assay [1] is greater than 100 µM; in assay [2], greater than 100 µM; in assay [3] it was greater than 100 µM; in assay [4], greater than 100 µM; in assay [5], 63.7 µM; in [6] it was 38.2 µM. For the same compound, the TGI in [7] was greater than 100 µM.

Turning to `COC1OC(C)/C(=N/O)C2OC(C)(C)OC12` (stereo unspecified), the TGI in assay [1], in assay [2], in assay [3], in [4], in assay [5] and in assay [6] was greater than 100 µM in each case. In assay [7], this compound gave a TGI greater than 100 µM.

On to `COc1ccc(Cn2c(=O)c(OS(=O)(=O)C(F)(F)F)c(C)c3cc4ccccc4cc32)cc1`, for which the TGI in [1], in assay [2], in [3], in assay [4], in [5] and in assay [6] was greater than 100 µM in each case. In addition, the TGI in assay [7] is greater than 100 µM.

As for `O=C(NNC(=O)c1ccc(Cl)cc1NC(=O)C12CC3CC(CC(C3)C1)C2)c1ccc(Cl)cc1`, the TGI in assay [1] was 35.9 µM; in [2], 58.7 µM; in assay [3] it was 87.5 µM; in assay [4], 60.6 µM; in [5], 63.1 µM; in [6], 55.8 µM. This compound also showed a TGI in assay [7] of 33.7 µM.

Regarding `O=C(O)c1c(CC(Cc2ccccc2)C(=O)O)ccc2c1CCC2` (stereo unspecified), the TGI in assay [1], in [2], in [3], in [4], in assay [5] and in assay [6] was greater than 100 µM throughout. In assay [7], this compound returned a TGI greater than 100 µM.

Take `O=S1(=O)N=C(SCc2c[nH]c3ccccc23)N(c2ccccc2)c2ccncc21`: the TGI in assay [1], in [2], in assay [3], in assay [4], in [5] and in assay [6] was greater than 100 µM throughout. The compound also returned a TGI in [7] of 50 µM.

Regarding `COc1cc(/C=C2\N=C(c3ccccc3)N(c3cc4cc(Sc5ccccc5)ccc4[nH]3)C2=O)ccc1O`, the TGI was greater than 50 µM in assay [1]; 4.19 µM in assay [2]; greater than 50 µM in assay [3]; greater than 50 µM in [4]; 36.1 µM in [5]; greater than 50 µM in assay [6]. Besides, in assay [7], the TGI was greater than 50 µM.

Consider `C#CCn1c(I)cc2c(c1=O)COC(=O)[C@]2(O)CC`, for which the TGI in [1], in assay [2], in assay [3], in assay [4], in [5] and in assay [6] was greater than 100 µM each time. In assay [7], the TGI is greater than 100 µM.

With `CC(C)(C)c1cc(C(C)(C)C)c(SC2OC(CO)C(O)C(O)C2O)c(O)c1O` (stereo unspecified), the TGI in [1] is 18.8 µM; in assay [2], 14.5 µM; in [3], greater than 34.2 µM; in assay [4], greater than 100 µM; in [5], 34.3 µM; in assay [6], 4.99 µM. This compound also came in with a TGI in [7] of 79.2 µM.

For `O=C(NNC(=O)c1ccncc1)C(=O)Nc1cc(Cl)c(Cl)cc1Cl`, the TGI in assay [1], in assay [2], in assay [3], in assay [4], in assay [5] and in assay [6] was greater than 100 µM in each case. The compound further displayed a TGI in assay [7] greater than 100 µM.

`O=[N+]([O-])/C(Cl)=C(\NCCO)C(Cl)=C(Cl)Cl`: the TGI is 76.8 µM in [1]; 11.4 µM in assay [2]; greater than 100 µM in [3]; 63.6 µM in [4]; greater than 77.9 µM in [5]; greater than 100 µM in assay [6]. This compound also returned a TGI in [7] greater than 86.4 µM.

Consider `Cc1c2oc(=O)c(C#N)cc2c2ccccn12`, for which the TGI in assay [1], in assay [2], in [3], in assay [4], in [5] and in [6] was greater than 100 µM each time. Also, in assay [7], the TGI is greater than 100 µM.

On to `Nc1ccnc2c1ncn2[C@H]1C[C@H](O)[C@@H](CO)O1`, for which the TGI in [1], in [2], in assay [3], in [4], in assay [5] and in assay [6] was greater than 100 µM in each case. This compound yielded a TGI in [7] greater than 100 µM.

Regarding `O=c1cc(-c2ccccc2)oc2cc(OCCCCCCCCCCOc3ccc4c(=O)cc(-c5ccccc5)oc4c3)ccc12`, the TGI in [8], in [1], in assay [2], in assay [9], in assay [10] and in [4] was greater than 100 µM throughout. The compound further registered a TGI in [6] greater than 100 µM.

Turning to `CC(Cl)(CCC(Cl)C(C)(C)Cl)C(=O)CBr` (stereo unspecified), the TGI in assay [1] is 21.7 µM; in assay [2] it was greater than 100 µM; in [3], 28.5 µM; in assay [4], 3.81 µM; in [5], 74.2 µM; in assay [6] it was 22.7 µM. In assay [7], this compound came in with a TGI of 22 µM.

As to `COC(=O)CCCc1nc2ccccc2nc1N=Nc1ccccc1`, the TGI was greater than 100 µM in assay [1]; 20.1 µM in assay [2]; greater than 100 µM in assay [3]; 26.3 µM in assay [4]; 57.1 µM in [5]; greater than 100 µM in assay [6]. Further, the TGI in assay [7] was greater than 100 µM.

As for `C/C(=N/NC(N)=S)C(CN1CCOCC1)C(C1=C(O)c2ccccc2OC1)c1ccccc1` (stereo unspecified), the TGI is greater than 100 µM in [11]; 50 µM in assay [2]; greater than 100 µM in assay [9]; greater than 100 µM in assay [10]; greater than 100 µM in assay [4]; greater than 100 µM in [6]. This compound also displayed a TGI in assay [7] greater than 100 µM.

On to `Clc1cc(Cl)nc(Nc2ccc3c(c2)CCC3)n1`, for which the TGI in [1] is greater than 100 µM; in assay [2], 73 µM; in assay [3], 70.8 µM; in assay [4], 69.6 µM; in [5], greater than 100 µM; in [6], greater than 100 µM. In [7], the TGI is greater than 100 µM.
